System: adjuvant-induced arthritis in rats
Experiment: Established Adjuvant-Induced Arthritis in Rats (paw volume reduction)
Type: in vivo, Lewis (Wistar) male rats
Settings: oral gavage once daily for 7 days (days 14-20), paw volume on day 21; for ED50: Rattus norvegicus, estimated from dose-response regression lines by inspection, read-out: Adjuvant Arthritis ED50 (50% decrease from control paw volume)

| SMILES | ED50 [mg/kg] | percent paw volume reduction at the dose indicated (25 mg/kg) [%] | other results |
| --- | --- | --- | --- |
| COc1ccc(-c2nc(S(=O)(=O)c3ccccc3)[nH]c2-c2ccc(OC)cc2)cc1 [Example 6] | 58 | – | – |
| COc1ccc(-c2nc(Sc3ccccc3)[nH]c2-c2ccc(OC)cc2)cc1 [Example 2] | – | 32 | percent paw volume reduction at the dose indicated (50 mg/kg): 28%; percent paw volume reduction at the dose indicated (100 mg/kg): 32% |
| COc1ccc(-c2nc(Sc3ccc(F)cc3)[nH]c2-c2ccc(OC)cc2)cc1 [Example 3] | – | 35 | – |
| COc1ccc(Sc2nc(-c3ccc(OC)cc3)c(-c3ccc(OC)cc3)[nH]2)cc1 [Example 4] | 13 | – | – |
| COc1ccc(-c2nc(S(=O)(=O)c3ccc(OC)cc3)[nH]c2-c2ccc(OC)cc2)cc1 [Example 8] | – | 16 | – |
| COc1ccc(-c2nc(S(=O)(=O)c3ccc(Cl)cc3)[nH]c2-c2ccc(OC)cc2)cc1 [Example 5, 4,5-Bis(4-methoxyphenyl)-2-(4-chlorophenylsulfonyl)-1H-imidazole] | – | 31 | – |
| COc1ccc(-c2nc(S(=O)(=O)c3ccc(F)cc3)[nH]c2-c2ccc(OC)cc2)cc1 [Example 7] | – | – | percent paw volume reduction at the dose indicated (27 mg/kg): 0% |
| COc1ccc(-c2nc(Sc3ccc(Cl)cc3)[nH]c2-c2ccc(OC)cc2)cc1 [Example 1, 4,5-Bis(4-methoxyphenyl)-2-(4-chlorophenylthio)-1H-imidazole] | 10 | – | – |

From patent US4330552A, “Antiinflammatory 4,5-diaryl-2-arylthioimidazoles” (E. I. Du Pont de Nemours and Company, priority 1980, dated 1982)
